In patent publication US20230391765A1, “HETEROBIFUNCTIONAL COMPOUNDS AS DEGRADERS OF ENL” (ICAHN SCHOOL OF MEDICINE AT MOUNT SINAI, priority 2020, published 2023):

Key:
Assay type in all cases: cell-based
ENL [1] = target: T1, ENL (Homo sapiens, UniProt Q03111); assay: Western blot of ENL protein levels in MV4; 11 cells; details: 11 cells; for effect of proteasome inhibitor MG132 on the ENL degradation induced by the degrader: 1 μM degrader with or without 1 μM MG132 for 6 h; for ENL protein level after long treatment: 1 μM for 48 and 72 h
T1 construct: Cells were lysed and expression of endogenous ENL was assessed by Western blot analysis; host or cells: MV4;11
T1 sequence (Q03111 1-559): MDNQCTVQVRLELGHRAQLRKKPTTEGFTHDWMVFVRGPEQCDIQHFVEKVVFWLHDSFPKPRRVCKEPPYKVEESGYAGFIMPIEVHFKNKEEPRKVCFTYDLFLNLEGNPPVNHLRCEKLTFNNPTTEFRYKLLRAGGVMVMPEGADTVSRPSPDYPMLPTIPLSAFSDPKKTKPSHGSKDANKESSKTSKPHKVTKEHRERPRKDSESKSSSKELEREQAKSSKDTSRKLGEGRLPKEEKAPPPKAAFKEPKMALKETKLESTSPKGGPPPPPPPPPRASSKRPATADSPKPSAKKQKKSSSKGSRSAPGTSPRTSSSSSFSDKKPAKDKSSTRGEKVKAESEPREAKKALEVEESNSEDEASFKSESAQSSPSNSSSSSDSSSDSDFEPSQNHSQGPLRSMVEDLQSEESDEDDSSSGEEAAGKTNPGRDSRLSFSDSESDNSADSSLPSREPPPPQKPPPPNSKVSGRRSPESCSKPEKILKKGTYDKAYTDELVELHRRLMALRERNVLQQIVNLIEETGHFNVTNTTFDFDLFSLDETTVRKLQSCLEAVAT
Protocol: MV4; 11 cells were treated with DMSO or the indicated compounds (the same panel of ENL degraders as shown in FIG. 4) at 1 μM and 10 μM for 24 h. Cells were lysed and expression of ENL was assessed by Western blot analysis.
DMSO treated cells were used as control.
MV4; 11 cells were treated with LQ076-122, or LQ081-107 at 0.3, 1, 3, 10, and 30 μM for 24 h. DMSO treated cells were used as control. Cells were lysed and expression of ENL and GAS41 was assessed by Western analysis.
MV4; 11 cells were treated with DMSO or the indicated compounds at 1 μM and 10 μM for 6 h. Cells were lysed and expression of endogenous ENL was assessed by Western blot analysis.
Cells were treated with 1 μM of ENL degrader with or without 1 μM proteasome inhibitor MG132 for 6 h.
(§1) ENL degraders were dissolved in DMSO. DMSO with no degraders was used as the control. 1×10^6 leukemia cells were seeded in 5 mL medium. For prescreening of compounds, each test compound was added to the medium at 1 μM and 10 μM. Cells were collected after 24 h treatment. For the concentration-dependent treatment, candidate compounds were added to the medium at a series of concentration as indicated in figures. Cells were collected after 24 h treatment. For the time-course treatment, candidate compounds were added to the medium at a final concentration of 4 μM (MV4; 11 cells) or 8 μM (MOLM13 cells). Cells were collected at the indicated timepoints (in hours: 12, 16, 20, 24 and 36 h).
(§2) After ENL degrader treatment, cells were collected, lysed, and total cell lysates were used for Western blot. The following primary antibodies were used: ENL (Cell Signaling Technology), GAS41 (Santa Cruz), GAPDH (Santa Cruz), β-actin (Sigma). Blots were detected using HRP-conjugated secondary antibodies.

[2] = tested on: ENL-dependent MV4; 11 cells; assay: Cell viability (CellTiter-Glo), MV4; 11 cells
Protocol: (§3) MV4; 11 (FIG. 13A), MOLM13 (FIG. 13B) and Jurkat (FIG. 13C) cells were seeded at 2×10^5 cells/mL density and treated with DMSO or indicated compounds 0.5, 1, 2 and 4 μM for 72 h. Cell viability was measured using CellTiter-Glo reagent (Promega) and relative cell viability was calculated by normalization to DMSO samples.
(§4) ENL-dependent MV4; 11 cells were seeded at 2×10^5 cells/mL density and treated with DMSO or the indicated compounds at 0, 1.25, 2.5, 5 and 10 μM for 72 h. Cell viability was measured using CellTiter-Glo reagent (Promega) and relative cell viability was calculated by normalization to DMSO samples.
as §4, with “11 and ENL-independent Jurkat” for “11”, “or” for “or the”, “10 nM, 100 nM, 1 μM” for “0, 1.25, 2.5, 5”, “3 days (A) or 6 days (B).” for “72 h.”
(§5) MV4; 11 or MOLM13 cells were seeded at 0.2×10^6 cells/mL density. Cells were treated with DMSO or ENL degraders at indicated concentrations. Each treatment was done in triplicates. After 72 h treatment, 100 μL of cell suspension from each treatment was mixed with 25 μL of CellTiter-Glo reagent (Promega) and incubated for 10 min before the luminescence signals were detected on a plate reader.

[3] = tested on: ENL-dependent MOLM13 leukemia cells; assay: Cell viability (CellTiter-Glo), MOLM13 cells; details: MOLM13 cells, 0.5, 1, 2 and 4 μM for 72 h
Protocol: as §3, §5

ENL [4] = target: T1, ENL; assay: Western blot of ENL protein levels in MOLM13 cells; details: for reduction of ENL protein levels: 1 nM to 10 μM for 6 h; for ENL protein level after long treatment: 1 μM for 48 and 72 h
Protocol: MOLM13 cells were treated with LQ076-122 or LQ081-108 at 0, 0.25, 0.5, 1, 1.5, 2, 2.5, 3, 4 and 8 μM for 24 h.
MOLM13 cells were treated with DMSO or 8 μM of LQ076-122 for 12, 16, 20, 24 and 36 h.
MV4; 11, MOLM13 and Jurkat cells were treated with LQ108-69, LQ108-71, LQ108-72, LQ126-62 and LQ126-63 at 0, 1 nM, 10 nM, 100 nM, 1 μM, and 10 μM doses for 6 h. DMSO was used as negative control.
as §1, §2

ENL [5] = target: T1, ENL; assay: Western blot of ENL protein levels in Jurkat cells; details: for reduction of ENL protein levels: 1 nM to 10 μM for 6 h; for ENL protein level after long treatment: 1 μM for 48 and 72 h
Text: […] DMSO was used as negative control.
as §2

[6] = 11 cells, 1.25, 2.5, 5 and 10 μM for 72 h

SMILES | reduction of ENL protein levels (ENL [1]; 0-8 μM for 24 h) | reduction of ENL protein levels (ENL [1]; 10 μM, 24 h) | suppression of cell growth (relative cell viability) ([2]; 11 cells, 0.5, 1, 2 and 4 μM for 72 h) | suppression of cell growth (relative cell viability) [3] | reduction of ENL protein levels (ENL [1]; 1 nM to 10 μM for 6 h) | effect of proteasome inhibitor MG132 on the ENL degradation induced by the degrader (ENL [1]) | ENL protein level after long treatment (ENL [1]) | reduction of ENL protein levels (ENL [4]) | ENL protein level after long treatment (ENL [4]) | reduction of ENL protein levels (ENL [5]) | ENL protein level after long treatment (ENL [5]) | suppression of cell growth (relative cell viability) [2, 6]
Cc1ncsc1-c1ccc([C@H](C)NC(=O)[C@@H]2C[C@@H](O)CN2C(=O)[C@@H](NC(=O)CCCCCCCCCCCNC(=O)c2ccc(C(=O)Nc3ccc4[nH]c(CN5CCC[C@@H]5C)nc4c3)cc2)C(C)(C)C)cc1 [LQ081-109, N^1-(12-(((S)-1-((2S,4R)-4-hydroxy-2-(((S)-1-(4-(4-methylthiazol-5-yl)phenyl)ethyl)carbamoyl)pyrrolidin-1-yl)-3,3-dimethyl-1-oxobutan-2-yl)amino)-12-oxododecyl)-N^4-(2-(((S)-2-methylpyrrolidin-1-yl)methyl)-1H-benzo[d]imidazol-5-yl)terephthalamide] | reduced ENL protein levels in a concentration-dependent manner | effective in reducing ENL protein levels | selectively suppressed cell growth | selectively suppressed cell growth |  |  |  |  |  |  |  | 
Cc1ncsc1-c1ccc(CNC(=O)[C@@H]2C[C@@H](O)CN2C(=O)[C@@H](NC(=O)CCCCCCCCCNC(=O)c2ccc3c(c2)[C@H](NC(=O)c2cc(-c4ccc(C(=O)N(C)C)c(O)c4)on2)CC3)C(C)(C)C)cc1 [LQ126-62, 5-(4-(dimethylcarbamoyl)-3-hydroxyphenyl)-N—((R)-6-((10-(((S)-1-((2S,4R)-4-hydroxy-2-((4-(4-methylthiazol-5-yl)benzyl)carbamoyl)pyrrolidin-1-yl)-3,3-dimethyl-1-oxobutan-2-yl)amino)-10-oxodecyl)carbamoyl)-2,3-dihydro-1H-inden-1-yl)isoxazole-3-carboxamide] |  |  |  |  | reduced ENL protein levels in a concentration-dependent manner | partially blocks the ENL degradation | maintained the ENL protein at low levels | reduced ENL protein levels in a concentration-dependent manner | maintained the ENL protein at low levels | reduced ENL protein levels in a concentration-dependent manner | maintained the ENL protein at low levels | significantly suppressed MV4; 11 cell growth at low micromolar concentration
Cc1ncsc1-c1ccc([C@H](CC(=O)NCCCCCCCNC(=O)c2ccc3c(c2)[C@H](NC(=O)c2cc(-c4ccc(C(=O)N(C)C)c(O)c4)on2)CC3)NC(=O)[C@@H]2C[C@@H](O)CN2C(=O)[C@@H](NC(=O)C2(F)CC2)C(C)(C)C)cc1 [LQ108-70, 5-(4-(dimethylcarbamoyl)-3-hydroxyphenyl)-N—((R)-6-((7-((S)-3-((2S,4R)-1-((S)-2-(1-fluorocyclopropane-1-carboxamido)-3,3-dimethylbutanoyl)-4-hydroxypyrrolidine-2-carboxamido)-3-(4-(4-methylthiazol-5-yl)phenyl)propanamido)heptyl)carbamoyl)-2,3-dihydro-1H-inden-1-yl)isoxazole-3-carboxamide] |  |  |  |  |  | partially blocks the ENL degradation | maintained the ENL protein at low levels |  | maintained the ENL protein at low levels |  | maintained the ENL protein at low levels | significantly suppressed MV4; 11 cell growth at low micromolar concentration
Cc1ncsc1-c1ccc([C@H](CC(=O)NCCCCCCNC(=O)c2ccc3c(c2)[C@H](NC(=O)c2cc(-c4ccc(C(=O)N(C)C)c(O)c4)on2)CC3)NC(=O)[C@@H]2C[C@@H](O)CN2C(=O)[C@@H](NC(=O)C2(F)CC2)C(C)(C)C)cc1 [LQ108-69, 5-(4-(dimethylcarbamoyl)-3-hydroxyphenyl)-N—((R)-6-((6-((S)-3-((2S,4R)-1-((S)-2-(1-fluorocyclopropane-1-carboxamido)-3,3-dimethylbutanoyl)-4-hydroxypyrrolidine-2-carboxamido)-3-(4-(4-methylthiazol-5-yl)phenyl)propanamido)hexyl)carbamoyl)-2,3-dihydro-1H-inden-1-yl)isoxazole-3-carboxamide] |  |  |  |  | reduced ENL protein levels in a concentration-dependent manner | partially blocks the ENL degradation | maintained the ENL protein at low levels | reduced ENL protein levels in a concentration-dependent manner | maintained the ENL protein at low levels | reduced ENL protein levels in a concentration-dependent manner | maintained the ENL protein at low levels | significantly suppressed MV4; 11 cell growth at low micromolar concentration
